We go through seven compounds from patent publication US20230121157A1, “ANTI-AGING CARE COMPOSITION COMPRISING PERFUMES” (BASF SE, priority 2020, published 2023).

A short description of this data set: Free radicals generated inside a formulation containing perfume after UV irradiation (ESR, spin marker PCA). It counts as physicochemical. To be noted: 0.1% (w/w) perfume in formulation, diluted 1:10 in water, 0.01 mM PCA; UVB 23,5 W/m^2, UVA 180 W/m^2. Here is the method: To measure the free radicals generation inside a formulation after UV irradiation, the concentration of a photostable spin marker added to the tested samples is followed by Electron Spin Resonance (ESR) spectroscopy before and after UV irradiation of the tested samples. The photostable spin marker will promptly react with the free radical generated in the formulation after UV irradiation.
0.1% (w/w) of the perfume to be tested is incorporated into the formulation, the formulation is then diluted in distillated water (1:10 dilution factor) and a water solution of the spin marker PCA (2,2,5,5,-tetramethyl pyrrolidine N-oxyl) is added to obtain a spin marker concentration of 0.01 mM. […] The sample is inserted in a capillary quartz tube to perform ESR measurement before and after 20 minutes of UV irradiation. The irradiances as integrated value over the spectral ranges of the solar simulator can exemplarily be E=23,5W/m^2 for UVB and 180W/m^2 for UVA.
The percentage of UV-induced free radicals inside the formulation containing the perfume to be tested serves as indicator to the sensitivity of said perfume.
The Electron Spin Resonance (ESR) measurements were performed with a high sensitive X-band bench top Electron Spin Resonance Spectrometer MiniScope MS300, supplied from Magnettech GmbH Berlin, Germany.
To measure the free radicals generation inside the formulation after UV irradiation, the concentration of a photostable spin marker added to the tested samples was followed by
Electron Spin Resonance (ESR) spectroscopy before and after UV irradiation of the tested samples. The photostable spin marker promptly reacted with the free radical generated in the formulation after UV irradiation.
0.1% (w/w) of the perfume to be tested (compare to Table 1) was incorporated into the formulation. The formulation was then diluted in distillated water (1:10 dilution factor) and a water solution of the spin marker PCA (2,2,5,5,-tetramethyl pyrrolidine N-oxyl) was added to obtain a spin marker concentration of 0.01 mM. Knowing the concentration of the spin trap PCA within the formulation, the amount of reduced PCA was calculated. The sample was inserted in a capillary quartz tube to perform ESR measurement before and after 20 minutes of UV irradiation. The irradiances as integrated value over the spectral ranges of the solar simulator were E=23,5 W/m^2 for UVB and 180 W/m^2 for UVA.
Regarding `OCc1ccccc1` [Benzyl Alcohol], the “% free radicals after 20 min UV irradiation” value was 4.4%.
The value for `COc1cc(C=O)ccc1O` [Vanillin, 4-hydroxy-3-methoxybenzaldehyde] was 85.9%; that for `O=C(OCc1ccccc1)c1ccccc1O` [Benzyl Salicylate, benzyl 2-hydroxybenzoate] was 17.5%; that for `O=c1ccc2ccccc2o1` [Coumarin, 2H-chromen-2-one] was 11.5%.
With `CC(C)=CCCC(C)=CC=O` [Citral, 3,7-dimethylocta-2,6-dienal], the “% free radicals after 20 min UV irradiation” value is 16.5%.
The value for `CC(CC=O)CCCC(C)(C)O` (stereo not shown) [Hydroxycitronellal] was 3.7%; that for `CC(C)=CCCC(C)CCO` (stereo not shown) [Citronellol, 3,7-dimethyloct-6-en-1-ol] was 6.6%.
